Laboratory results taken from patent US10513519B2, “Solid forms of (1S,4S)-4-(2-(((3S,4R)-3-fluorotetrahydro-2H-pyran-4-yl)amino)-8-((2,4,6-trichlorophenyl)amino)-9H-purin-9-yl)-1-methylcyclohexane-1-carboxamide and methods of their use” (Signal Pharmaceuticals, LLC, priority 2016, dated 2019).

Tested on: cancer cell lines
Assay: Multiplexed cytotoxicity assay: cell proliferation (relative cell count IC50, GI50)
Assay type: cell-based
Procedure: (§1) Cells are grown in RPMI1640, 10% FBS, 2 mM L-alanyl-L-Glutamine, 1 mM Na pyruvate or a special medium in a humidified atmosphere of 5% CO2 at 37° C. Cells are seeded into 384-well plates and incubated in a humidified atmosphere of 5% CO2 at 37° C. Compounds are added 24 h post cell seeding. At the same time, a time zero untreated cell plate is generated. After a 72 hour incubation period, cells are fixed and stained with fluorescently labeled antibodies and nuclear dye to allow visualization of nuclei, apoptotic cells and mitotic cells. Apoptotic cells are detected using an anti-active caspase-3 antibody. Mitotic cells are detected using an anti phospho-histone-3 antibody. Compounds are serially diluted 3.16-fold and assayed over 10 concentrations in a final assay concentration of 0.1% DMSO from the highest test concentration of 10 μM. Automated fluorescence microscopy was carried out using a Molecular Devices ImageXpress Micro XL high-content imager, and images are collected with a 4× objective.
(§2) Sixteen-bit TIFF images are acquired and analyzed with MetaXpress 5.1.0.41 software. Cell proliferation is measured by the signal intensity of the incorporated nuclear dye. The cell proliferation assay output is referred to as the relative cell count. To determine the cell proliferation end point, the cell proliferation data output is transformed to percentage of control (POC) using the following formula: POC=relative cell count(compound wells)/relative cell count(vehicle wells)×100
(§3) GI50 is the concentration needed to reduce the observed growth by half. This is the concentration that inhibits the growth to the level midway between growth in untreated cells and the number of cells seeded in the well (Time zero value). The IC50 values are calculated using nonlinear regression to fit data to a sigmoidal 4 point, 4 parameter One-Site dose response model, where: y(fit)=A+[(B−A)/(1+((C/x)^D))].
as §1, with “In another experiment, cells were grown” for “Cells are grown”, “Cells were” for “Cells are”, “Compounds were” for “Compounds are”, “plate was” for “plate is”, “cells were” for “cells are”, “images were” for “images are”
as §2, with “images were” for “images are”, “proliferation was” for “proliferation is”, “output was” for “output is”
as §3, with “GI50 refers to” for “GI50 is”, “This corresponds to” for “This is”, “values were” for “values are”

[1] = 72 h, G292CLONEA141B1, Soft Tissue, Osteosarcoma
[2] = 72 h, HOS, Soft Tissue, Osteosarcoma
[3] = 72 h, HS729, Soft Tissue, Sarcoma
[4] = 72 h, HS821T, Soft Tissue, Sarcoma
[5] = 72 h, HS888SK, Soft Tissue, Osteosarcoma
[6] = 72 h, IM9, Hematopoietic and lymphoid, Myeloma
[7] = 72 h, TE125T, Soft Tissue, Sarcoma
[8] = 72 h, U266B1, Hematopoietic and lymphoid, Myeloma
[9] = 72 h, VAESBJ, Soft Tissue, Sarcoma
[10] = BC1 (Hematopoietic and lymphoid, Lymphoma)
[11] = BCP-1, BCP1 (Hematopoietic and lymphoid, Lymphoma)
[12] = BM-1604, 72 h, BM1604, Prostate, 72 h
[13] = CEM/C1, CEMC1 (Hematopoietic and lymphoid, Leukemia)
[14] = CML-T1, CMLT1 (Hematopoietic and lymphoid, Leukemia)
[15] = D341 Med, D341MED (CNS, Medulloblastoma)
[16] = DB (Hematopoietic and lymphoid, Lymphoma)
[17] = EB2 (Hematopoietic and lymphoid, Lymphoma)
[18] = EB3 (Hematopoietic and lymphoid, Lymphoma)
[19] = EM2 (Hematopoietic and lymphoid, Leukemia)
[20] = H9 (Hematopoietic and lymphoid, Lymphoma)
[21] = HS611T (Hematopoietic and lymphoid, Lymphoma)
[22] = HT (Hematopoietic and lymphoid, Lymphoma)
[23] = HUH-6-clone5, HUH6CLONE5 (Liver)
[24] = Homo sapiens, 22Rv1, 72 h, 22RV1, Prostate, 72 h
[25] = Homo sapiens, 639-V, 639V (Bladder)
[26] = Homo sapiens, 647-V, 647V (Bladder)
[27] = Homo sapiens, 769-P, 769P (Kidney)
[28] = Homo sapiens, 786-0, 786O (Kidney)
[29] = Homo sapiens, A101D, A101D (Skin, Melanoma)
[30] = Homo sapiens, A 172, A172 (CNS, Glioma)
[31] = Homo sapiens, A204, 72 h, A204, Soft Tissue, Sarcoma, 72 h
[32] = Homo sapiens, A253, A253 (Head and Neck)
[33] = Homo sapiens, A498, A498 (Kidney)
[34] = Homo sapiens, A549, 72 h, A549, Lung, NSCLC, 72 h
[35] = Homo sapiens, A673, 72 h, A673, Soft Tissue, Sarcoma, 72 h
[36] = Homo sapiens, A704, A704 (Kidney)
[37] = Homo sapiens, A2058, A2058 (Skin, Melanoma)
[38] = Homo sapiens, A-375, A375 (Skin, Melanoma)
[39] = Homo sapiens, A-427, 72 h, A427, Lung, NSCLC, 72 h
[40] = Homo sapiens, A-431, A431 (Skin, Carcinoma)
[41] = Homo sapiens, ACHN, ACHN (Kidney)
[42] = Homo sapiens, AN3-CA, 72 h, AN3CA, Female GU, Uterus
[43] = Homo sapiens, ARH-77, 72 h, ARH77, Hematopoietic and lymphoid, Myeloma, 72 h
[44] = Homo sapiens, ASPC1, 72 h, ASPC1, Pancreas, 72 h
[45] = Homo sapiens, AU565, AU565 (Breast)
[46] = Homo sapiens, BE(2)-C, 72 h, BE2C, CNS, Neuroblastoma
[47] = Homo sapiens, BFTC-905, BFTC905 (Bladder)
[48] = Homo sapiens, BHT-101, 72 h, BHT101, Endocrine, Thyroid, 72 h
[49] = Homo sapiens, BPH-1, 72 h, BPH1, Prostate, 72 h
[50] = Homo sapiens, BT-20, BT20 (Breast)

C[C@]1(C(N)=O)CC[C@@H](n2c(Nc3c(Cl)cc(Cl)cc3Cl)nc3cnc(N[C@@H]4CCOC[C@H]4F)nc32)CC1 [Compound 1, cis-4-[2-{[(3S,4R)-3-fluorooxan-4-yl]amino}-8-(2,4,6-trichloroanilino)-9H-purin-9-yl]-1-methylcyclohexane-1-carboxamide]
GI50 (5637 (Bladder)): 6.85 µM
IC50 (5637 (Bladder)): 9.77 µM
GI50 (72 h, AGS, Stomach): 0.0086 µM
IC50 (72 h, AGS, Stomach): 0.0098 µM
GI50 [1]: 0.0272 µM
IC50 [1]: 0.0493 µM
GI50 [2]: 2.57 µM
IC50 [2]: 3.69 µM
GI50 (72 h, HS229T, Lung, NSCLC): 0.415 µM
IC50 (72 h, HS229T, Lung, NSCLC): > 10 µM
GI50 [3]: 0.54 µM
IC50 [3]: > 10 µM
GI50 [4]: 0.169 µM
IC50 [4]: > 10 µM
GI50 [5]: 0.111 µM
IC50 [5]: > 10 µM
GI50 [6]: 0.0911 µM
IC50 [6]: 0.143 µM
GI50 (72 h, JAR, Female GU, Placenta): 3.17 µM
IC50 (72 h, JAR, Female GU, Placenta): 3.21 µM
GI50 (72 h, KLE, Female GU, Uterus): > 10 µM
IC50 (72 h, KLE, Female GU, Uterus): > 10 µM
GI50 (72 h, PA1, Female GU, Ovary): 0.471 µM
IC50 (72 h, PA1, Female GU, Ovary): 2.62 µM
GI50 (72 h, PC3, Prostate): 7.82 µM
IC50 (72 h, PC3, Prostate): 8.54 µM
GI50 (72 h, RD, Soft Tissue, Sarcoma): 0.0367 µM
IC50 (72 h, RD, Soft Tissue, Sarcoma): 0.0443 µM
GI50 (72 h, SKPNDW, Stomach): 3.6 µM
IC50 (72 h, SKPNDW, Stomach): > 10 µM
GI50 [7]: 1.09 µM
IC50 [7]: > 10 µM
GI50 (72 h, TT, Endocrine, Thyroid): 0.0863 µM
IC50 (72 h, TT, Endocrine, Thyroid): > 10 µM
GI50 [8]: 0.0133 µM
IC50 [8]: 0.109 µM
GI50 [9]: 0.336 µM
IC50 [9]: 0.58 µM
GI50 (A7 (Skin, Melanoma)): 1.72 µM
IC50 (A7 (Skin, Melanoma)): 7.27 µM
GI50 (A388 (Head and Neck)): 0.422 µM
IC50 (A388 (Head and Neck)): 1.12 µM
GI50 [10]: > 10 µM
IC50 [10]: > 10 µM
GI50 [11]: 0.0205 µM
IC50 [11]: 0.0797 µM
GI50 [12]: 0.141 µM
IC50 [12]: 0.401 µM
GI50 (C4I (Female GU, Cervix)): > 10 µM
IC50 (C4I (Female GU, Cervix)): > 10 µM
GI50 (C32 (Skin, Melanoma)): 0.0289 µM
IC50 (C32 (Skin, Melanoma)): 0.111 µM
GI50 (C32TG, C32TG (Skin, Melanoma)): 0.0408 µM
IC50 (C32TG, C32TG (Skin, Melanoma)): 0.109 µM
GI50 [13]: > 10 µM
IC50 [13]: > 10 µM
GI50 [14]: 0.149 µM
IC50 [14]: > 10 µM
GI50 [15]: 10 µM
IC50 [15]: 0.0219 µM
GI50 [16]: 0.0131 µM
IC50 [16]: > 10 µM
GI50 (DKMG (CNS, Glioma)): 0.0207 µM
IC50 (DKMG (CNS, Glioma)): 0.126 µM
GI50 [17]: 0.389 µM
IC50 [17]: 0.55 µM
GI50 [18]: 1.63 µM
IC50 [18]: 2.15 µM
GI50 [19]: 0.0481 µM
IC50 [19]: 0.0936 µM
GI50 (H4 (CNS, Glioma)): 0.758 µM
IC50 (H4 (CNS, Glioma)): 0.943 µM
GI50 [20]: 0.0232 µM
IC50 [20]: 0.039 µM
GI50 (HLE (Liver)): 0.683 µM
IC50 (HLE (Liver)): 1.04 µM
GI50 (HLF (Liver)): 4.76 µM
IC50 (HLF (Liver)): 6.47 µM
GI50 [21]: 0.0106 µM
IC50 [21]: 0.0123 µM
GI50 (HS688AT (Skin, Melanoma)): 0.0822 µM
IC50 (HS688AT (Skin, Melanoma)): > 10 µM
GI50 (HS852T (Skin, Melanoma)): 0.0564 µM
IC50 (HS852T (Skin, Melanoma)): 0.715 µM
GI50 (HS895T (Skin, Melanoma)): > 10 µM
IC50 (HS895T (Skin, Melanoma)): > 10 µM
GI50 (HS934T (Skin, Melanoma)): 0.0052 µM
IC50 (HS934T (Skin, Melanoma)): > 10 µM
GI50 (HS936TC1 (Skin, Melanoma)): 0.0184 µM
IC50 (HS936TC1 (Skin, Melanoma)): 0.0258 µM
GI50 (HT3 (Female GU, Cervix)): 0.856 µM
IC50 (HT3 (Female GU, Cervix)): 3.21 µM
GI50 [22]: 8.3 µM
IC50 [22]: > 10 µM
GI50 [23]: 0.145 µM
IC50 [23]: 0.354 µM
GI50 [24]: 2.66 µM
IC50 [24]: 5.58 µM
GI50 [25]: 0.184 µM
IC50 [25]: 0.206 µM
GI50 [26]: 6.93 µM
IC50 [26]: 7.82 µM
GI50 [27]: 0.194 µM
IC50 [27]: 0.255 µM
GI50 [28]: 2.04 µM
IC50 [28]: 6.92 µM
GI50 [29]: 0.0424 µM
IC50 [29]: 0.0815 µM
GI50 [30]: 0.0649 µM
IC50 [30]: 0.139 µM
GI50 [31]: > 10 µM
IC50 [31]: > 10 µM
GI50 [32]: 0.171 µM
IC50 [32]: > 10 µM
GI50 [33]: 0.522 µM
IC50 [33]: 0.808 µM
GI50 [34]: 0.102 µM
IC50 [34]: 0.128 µM
GI50 [35]: 3.75 µM
IC50 [35]: 3.87 µM
GI50 [36]: > 10 µM
IC50 [36]: > 10 µM
GI50 [37]: 0.212 µM
IC50 [37]: 0.288 µM
GI50 [38]: 0.0065 µM
IC50 [38]: 0.0072 µM
GI50 [39]: 0.0475 µM
IC50 [39]: 0.0763 µM
GI50 [40]: 0.228 µM
IC50 [40]: 0.311 µM
GI50 [41]: 0.306 µM
IC50 [41]: 0.55 µM
GI50 [42]: 0.713 µM
IC50 [42]: 7.03 µM
GI50 [43]: > 10 µM
IC50 [43]: > 10 µM
GI50 [44]: 0.0308 µM
IC50 [44]: > 10 µM
GI50 [45]: 8.15 µM
IC50 [45]: 8.77 µM
GI50 [46]: 0.146 µM
IC50 [46]: 0.21 µM
GI50 [47]: 0.0515 µM
IC50 [47]: 0.0546 µM
GI50 [48]: 0.0376 µM
IC50 [48]: 0.0412 µM
GI50 [49]: 0.0578 µM
IC50 [49]: 0.0675 µM
GI50 [50]: 8.36 µM
IC50 [50]: > 10 µM
